Molecular target: T1, active CTSK in intact cells (MG-63, U-2 OS, U-87 MG) (Homo sapiens, UniProt P43235)
T1 construct: ability to label endogenous CTSK activity in intact cells; endogenous in cells; host or cells: MG-63, U-2 OS, U-87 MG
T1 sequence (P43235 115-329): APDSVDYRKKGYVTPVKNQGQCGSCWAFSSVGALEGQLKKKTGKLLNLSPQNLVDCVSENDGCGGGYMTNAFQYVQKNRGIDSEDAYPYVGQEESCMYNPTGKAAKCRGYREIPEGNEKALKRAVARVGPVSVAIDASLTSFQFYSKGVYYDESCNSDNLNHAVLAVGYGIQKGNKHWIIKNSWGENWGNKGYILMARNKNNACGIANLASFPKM
Assay: Labeling of endogenous CTSK in intact cells, fluorescent SDS-PAGE
Assay type: cell-based
Conditions: probe 5 µM, fluorescent SDS PAGE method
Method: Figure 2 Labeling of endogenous CTSK in intact cells. a) U2‐OS cells were treated with DMSO or 5 µM of the indicated inhibitors in culture medium, for 2 h, then with indicated ABPs [5 µM] in a culture medium for indicated times, followed by cell lysis, SDS‐PAGE separation, and fluorescent scanning of the gel at 635/670 nm. An immunoblot of CTSK of the same gel is presented below. b) Intact MG63 cells were treated with GD32 5 µM in the culture media for indicated times, cell lysates were analyzed as in a. CTSK immunoblot is presented, pro and mature CTSK are indicated by arrows. c) MG63 cells and d) U87MG cells were treated with DMSO, or 5 µM of indicated inhibitors in culture medium for 2 h, followed by incubation with 5 µM of indicated probes for 5 h (GD32 and GD42) and 2 h (GB123), cell lysates were analyzed by fluorescent SDS PAGE as in a. […] Cells were incubated with 5 µM GD32 for 24 h in growth media at indicated pHs, prior to the cell lysis, cell lysates were analysed as in a. […] Input (I), immunoprecipitation (IP), and output (O) were separated by a 14% SDS‐PAGE and scanned for fluorescence. […] We further corroborated the band identity by western blot with an anti‐CTSK antibody, where the mature active CTSK is detected at the same location on the gel (Figure 2). page 6: MG63 Ex/Em 635/670 nm b) Figure S5. […] Cell lysates were analyzed as described above. […]

detection of binding to active CTSK: could not be detected
Compound: CC(C)C[C@H](N[C@@H](c1ccc(-c2ccc(S(=O)(=O)CCNC(=O)CCCCC[N+]3=C(/C=C/C=C/C=C4/N(C)c5ccc(S(=O)(=O)O)cc5C4(C)C)C(C)(C)c4cc(S(=O)(=O)O)ccc43)cc2)cc1)C(F)(F)F)C(=O)NC1(C#N)CC1 [GD37]

From publication PMC11481179, “Development and Application of Reversible and Irreversible Covalent Probes for Human and Mouse Cathepsin‐K Activity Detection, Revealing Nuclear Activity” (Advanced Science, 2024)
